Assay results: ChEMBL document CHEMBL4507319 (2021)

Key:
[1] = target: Mitogen-activated protein kinase kinase kinase 4 (Homo sapiens) (UniProt Q9Y6R4); conditions: Compound concentration 1000.0 nM
[2] = target: Serine/threonine-protein kinase Nek6 (Homo sapiens) (UniProt Q9HC98); conditions: Compound concentration 1000.0 nM
[3] = target: T1, Serine/threonine-protein kinase Sgk2 (Homo sapiens) (UniProt Q9HBY8); conditions: Compound concentration 1000.0 nM
T1 sequence (whole entry): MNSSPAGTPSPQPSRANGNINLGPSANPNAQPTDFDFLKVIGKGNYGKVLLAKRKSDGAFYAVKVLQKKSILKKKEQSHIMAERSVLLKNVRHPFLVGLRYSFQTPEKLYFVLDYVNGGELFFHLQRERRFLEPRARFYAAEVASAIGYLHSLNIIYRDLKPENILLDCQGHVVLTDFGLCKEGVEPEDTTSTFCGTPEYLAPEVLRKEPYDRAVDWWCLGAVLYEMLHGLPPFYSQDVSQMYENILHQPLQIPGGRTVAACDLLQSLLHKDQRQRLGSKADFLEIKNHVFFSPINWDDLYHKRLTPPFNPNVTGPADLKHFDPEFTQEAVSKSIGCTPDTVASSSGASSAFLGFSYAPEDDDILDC

[4] = target: Mitogen-activated protein kinase 8 (Homo sapiens) (UniProt P45983); conditions: Compound concentration 1000.0 nM
Mitogen-activated protein kinase 8 (Homo sapiens), sequence (P45983 whole entry): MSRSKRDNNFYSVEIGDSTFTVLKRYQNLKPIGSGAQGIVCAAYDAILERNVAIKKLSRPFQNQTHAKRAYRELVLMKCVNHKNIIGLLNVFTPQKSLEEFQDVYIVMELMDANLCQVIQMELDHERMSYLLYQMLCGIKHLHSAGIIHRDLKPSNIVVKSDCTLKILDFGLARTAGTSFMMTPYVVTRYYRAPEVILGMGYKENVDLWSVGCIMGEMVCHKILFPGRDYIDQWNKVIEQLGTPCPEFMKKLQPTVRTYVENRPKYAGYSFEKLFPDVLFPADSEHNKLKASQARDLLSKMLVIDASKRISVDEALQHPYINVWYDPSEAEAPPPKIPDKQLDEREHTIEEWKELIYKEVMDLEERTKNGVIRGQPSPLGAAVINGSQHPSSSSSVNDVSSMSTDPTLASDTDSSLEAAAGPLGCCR

[5] = target: Serine/threonine-protein kinase VRK2 (Homo sapiens) (UniProt Q86Y07); conditions: Compound concentration 1000.0 nM
[6] = target: T2, Serine/threonine-protein kinase BRSK1 (Homo sapiens) (UniProt Q8TDC3); conditions: Compound concentration 1000.0 nM
T2 sequence (whole entry): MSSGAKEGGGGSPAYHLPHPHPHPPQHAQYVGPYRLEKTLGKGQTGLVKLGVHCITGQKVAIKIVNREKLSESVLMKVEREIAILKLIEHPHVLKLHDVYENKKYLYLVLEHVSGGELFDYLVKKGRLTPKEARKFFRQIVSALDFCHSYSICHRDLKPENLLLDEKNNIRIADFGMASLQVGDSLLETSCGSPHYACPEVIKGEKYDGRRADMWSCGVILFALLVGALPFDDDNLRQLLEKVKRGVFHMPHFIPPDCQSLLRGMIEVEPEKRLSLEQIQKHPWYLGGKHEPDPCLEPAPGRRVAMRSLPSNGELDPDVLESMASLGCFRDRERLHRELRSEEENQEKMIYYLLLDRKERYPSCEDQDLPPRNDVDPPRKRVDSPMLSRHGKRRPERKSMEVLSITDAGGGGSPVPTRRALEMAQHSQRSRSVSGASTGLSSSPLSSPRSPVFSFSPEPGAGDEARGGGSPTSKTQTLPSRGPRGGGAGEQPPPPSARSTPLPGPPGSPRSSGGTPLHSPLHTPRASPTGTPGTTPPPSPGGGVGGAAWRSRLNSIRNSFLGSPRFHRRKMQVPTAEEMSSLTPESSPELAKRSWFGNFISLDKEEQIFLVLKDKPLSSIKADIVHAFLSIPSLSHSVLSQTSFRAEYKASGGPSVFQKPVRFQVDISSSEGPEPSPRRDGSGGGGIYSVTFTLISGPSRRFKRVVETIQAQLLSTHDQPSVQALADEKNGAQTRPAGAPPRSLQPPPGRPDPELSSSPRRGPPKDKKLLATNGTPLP

[7] = target: 5-hydroxytryptamine receptor 5A (Homo sapiens) (UniProt P47898); conditions: Compound concentration 10.0 uM
5-hydroxytryptamine receptor 5A (Homo sapiens), sequence (P47898 whole entry): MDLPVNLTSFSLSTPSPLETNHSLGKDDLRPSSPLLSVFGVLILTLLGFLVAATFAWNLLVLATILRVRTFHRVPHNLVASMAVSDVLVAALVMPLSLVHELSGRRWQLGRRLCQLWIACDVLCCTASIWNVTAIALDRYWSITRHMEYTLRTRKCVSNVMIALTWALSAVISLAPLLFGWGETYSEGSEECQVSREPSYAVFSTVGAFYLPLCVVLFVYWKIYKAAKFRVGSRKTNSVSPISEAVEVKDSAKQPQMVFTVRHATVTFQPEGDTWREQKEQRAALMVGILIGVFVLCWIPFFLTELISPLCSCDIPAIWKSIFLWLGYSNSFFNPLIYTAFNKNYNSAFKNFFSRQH

[8] = target: Cyclin-dependent kinase-like 1 (Homo sapiens) (UniProt Q00532); conditions: Compound concentration 1000.0 nM
[9] = target: Serine/threonine-protein kinase pim-2 (Homo sapiens) (UniProt Q9P1W9); conditions: Compound concentration 1000.0 nM
Serine/threonine-protein kinase pim-2 (Homo sapiens), sequence (Q9P1W9 whole entry, looked up): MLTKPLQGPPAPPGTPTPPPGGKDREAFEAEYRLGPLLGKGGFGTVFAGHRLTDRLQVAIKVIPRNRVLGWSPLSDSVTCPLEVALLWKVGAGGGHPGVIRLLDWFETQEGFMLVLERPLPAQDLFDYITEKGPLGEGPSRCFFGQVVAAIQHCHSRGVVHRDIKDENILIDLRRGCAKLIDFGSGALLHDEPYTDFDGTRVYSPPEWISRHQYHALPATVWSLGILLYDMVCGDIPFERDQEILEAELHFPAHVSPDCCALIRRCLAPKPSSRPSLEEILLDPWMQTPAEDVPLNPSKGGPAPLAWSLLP

[10] = tested on: Epidermal growth factor receptor (Homo sapiens), P00533 [UNDEFINED MUTATION]; conditions: Compound concentration 1000.0 nM
[11] = tested on: Mast/stem cell growth factor receptor Kit (Homo sapiens), P10721 [A829P]; conditions: Compound concentration 1000.0 nM
Mast/stem cell growth factor receptor Kit (Homo sapiens), P10721 [A829P], sequence (P10721 whole entry A829P): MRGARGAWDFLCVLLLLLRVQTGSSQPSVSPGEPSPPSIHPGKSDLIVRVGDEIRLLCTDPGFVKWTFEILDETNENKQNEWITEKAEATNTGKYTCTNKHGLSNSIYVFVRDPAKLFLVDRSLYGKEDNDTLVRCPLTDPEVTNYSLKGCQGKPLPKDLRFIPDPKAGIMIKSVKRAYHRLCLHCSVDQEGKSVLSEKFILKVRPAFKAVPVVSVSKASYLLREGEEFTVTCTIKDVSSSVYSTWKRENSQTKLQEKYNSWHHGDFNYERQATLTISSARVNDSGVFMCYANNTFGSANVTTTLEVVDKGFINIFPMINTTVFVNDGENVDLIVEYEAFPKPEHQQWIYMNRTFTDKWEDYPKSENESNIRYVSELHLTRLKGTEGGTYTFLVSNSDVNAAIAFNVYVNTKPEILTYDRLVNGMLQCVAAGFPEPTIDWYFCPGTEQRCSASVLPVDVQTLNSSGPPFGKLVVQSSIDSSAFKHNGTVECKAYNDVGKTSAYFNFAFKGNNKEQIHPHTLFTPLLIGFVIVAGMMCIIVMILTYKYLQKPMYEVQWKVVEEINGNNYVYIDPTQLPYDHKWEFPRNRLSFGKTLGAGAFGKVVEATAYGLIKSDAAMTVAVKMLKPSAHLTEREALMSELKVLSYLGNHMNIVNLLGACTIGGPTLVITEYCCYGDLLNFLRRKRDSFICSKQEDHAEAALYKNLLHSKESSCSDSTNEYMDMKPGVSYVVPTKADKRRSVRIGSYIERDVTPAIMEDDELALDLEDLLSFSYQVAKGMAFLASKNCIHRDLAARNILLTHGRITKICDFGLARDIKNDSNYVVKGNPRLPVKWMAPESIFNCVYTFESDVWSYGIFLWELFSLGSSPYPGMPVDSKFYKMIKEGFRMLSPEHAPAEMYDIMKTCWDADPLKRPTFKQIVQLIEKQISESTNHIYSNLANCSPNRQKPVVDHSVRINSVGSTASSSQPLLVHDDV

[12] = tested on: Mast/stem cell growth factor receptor Kit (Homo sapiens), P10721 [V559D,T670I]; conditions: Compound concentration 1000.0 nM
Mast/stem cell growth factor receptor Kit (Homo sapiens), P10721 [V559D,T670I], sequence (P10721 whole entry V559D/T670I): as the sequence (P10721 whole entry A829P) above, with V559D, T670I, P829A counted along it

[13] = target: Receptor-type tyrosine-protein kinase FLT3 (Homo sapiens) (UniProt P36888); conditions: Compound concentration 1000.0 nM
Receptor-type tyrosine-protein kinase FLT3 (Homo sapiens), sequence (P36888 whole entry): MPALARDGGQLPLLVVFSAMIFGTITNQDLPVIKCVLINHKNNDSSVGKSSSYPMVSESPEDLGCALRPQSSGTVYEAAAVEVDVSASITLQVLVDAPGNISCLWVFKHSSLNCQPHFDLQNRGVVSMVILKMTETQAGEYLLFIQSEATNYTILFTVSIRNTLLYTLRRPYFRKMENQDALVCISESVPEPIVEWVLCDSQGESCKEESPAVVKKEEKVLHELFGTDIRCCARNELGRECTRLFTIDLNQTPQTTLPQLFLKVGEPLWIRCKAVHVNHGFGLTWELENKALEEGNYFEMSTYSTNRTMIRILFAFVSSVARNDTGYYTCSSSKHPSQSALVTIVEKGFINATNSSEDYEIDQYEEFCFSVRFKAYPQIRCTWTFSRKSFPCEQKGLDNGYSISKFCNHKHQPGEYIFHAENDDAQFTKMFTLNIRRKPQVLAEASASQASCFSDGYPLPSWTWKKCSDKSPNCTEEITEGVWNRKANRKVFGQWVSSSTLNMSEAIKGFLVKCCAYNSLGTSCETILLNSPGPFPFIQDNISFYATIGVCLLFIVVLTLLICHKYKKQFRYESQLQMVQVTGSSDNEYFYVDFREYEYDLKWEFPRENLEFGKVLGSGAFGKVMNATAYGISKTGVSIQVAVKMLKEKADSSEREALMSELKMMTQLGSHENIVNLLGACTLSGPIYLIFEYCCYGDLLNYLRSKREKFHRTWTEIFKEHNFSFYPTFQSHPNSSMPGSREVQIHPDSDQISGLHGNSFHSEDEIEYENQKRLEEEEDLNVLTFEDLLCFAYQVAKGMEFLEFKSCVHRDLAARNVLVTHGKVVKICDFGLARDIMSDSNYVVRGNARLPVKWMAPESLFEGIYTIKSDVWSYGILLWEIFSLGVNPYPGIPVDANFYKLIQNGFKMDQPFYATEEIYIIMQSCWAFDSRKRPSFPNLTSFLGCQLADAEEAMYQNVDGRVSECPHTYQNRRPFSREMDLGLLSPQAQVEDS

[14] = target: T3, Mitogen-activated protein kinase kinase kinase kinase 3 (Homo sapiens) (UniProt Q8IVH8); conditions: Compound concentration 1000.0 nM
T3 sequence (whole entry): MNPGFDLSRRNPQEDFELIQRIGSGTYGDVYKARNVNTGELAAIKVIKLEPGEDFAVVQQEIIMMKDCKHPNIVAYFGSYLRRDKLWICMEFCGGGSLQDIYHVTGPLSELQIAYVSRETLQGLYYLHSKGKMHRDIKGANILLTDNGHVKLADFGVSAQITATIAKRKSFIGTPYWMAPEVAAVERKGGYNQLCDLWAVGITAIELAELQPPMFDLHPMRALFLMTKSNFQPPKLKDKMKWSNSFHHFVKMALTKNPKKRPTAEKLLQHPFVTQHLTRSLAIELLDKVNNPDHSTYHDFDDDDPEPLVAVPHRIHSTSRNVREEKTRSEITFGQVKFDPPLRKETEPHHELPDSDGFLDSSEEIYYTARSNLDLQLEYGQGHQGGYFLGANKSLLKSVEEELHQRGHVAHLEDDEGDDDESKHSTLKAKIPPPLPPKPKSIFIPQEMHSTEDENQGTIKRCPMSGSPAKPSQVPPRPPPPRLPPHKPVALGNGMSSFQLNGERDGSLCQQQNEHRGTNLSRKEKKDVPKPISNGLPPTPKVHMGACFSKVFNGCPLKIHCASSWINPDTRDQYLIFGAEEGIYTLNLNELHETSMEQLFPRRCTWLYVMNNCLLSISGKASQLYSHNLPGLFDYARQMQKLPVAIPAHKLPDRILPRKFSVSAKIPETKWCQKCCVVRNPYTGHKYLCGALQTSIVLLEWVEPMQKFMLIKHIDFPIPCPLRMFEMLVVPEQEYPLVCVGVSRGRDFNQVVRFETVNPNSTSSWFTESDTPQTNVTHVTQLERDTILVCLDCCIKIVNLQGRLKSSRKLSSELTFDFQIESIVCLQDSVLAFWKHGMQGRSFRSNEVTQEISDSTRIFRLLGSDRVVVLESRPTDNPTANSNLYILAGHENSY

[15] = target: Death-associated protein kinase 2 (Homo sapiens) (UniProt Q9UIK4); conditions: Compound concentration 1000.0 nM
[16] = target: Serine/threonine-protein kinase 38-like (Homo sapiens) (UniProt Q9Y2H1); conditions: Compound concentration 1000.0 nM
[17] = target: Cyclin-dependent kinase 7 (Homo sapiens) (UniProt P50613); conditions: Compound concentration 1000.0 nM
Cyclin-dependent kinase 7 (Homo sapiens), sequence (P50613 whole entry): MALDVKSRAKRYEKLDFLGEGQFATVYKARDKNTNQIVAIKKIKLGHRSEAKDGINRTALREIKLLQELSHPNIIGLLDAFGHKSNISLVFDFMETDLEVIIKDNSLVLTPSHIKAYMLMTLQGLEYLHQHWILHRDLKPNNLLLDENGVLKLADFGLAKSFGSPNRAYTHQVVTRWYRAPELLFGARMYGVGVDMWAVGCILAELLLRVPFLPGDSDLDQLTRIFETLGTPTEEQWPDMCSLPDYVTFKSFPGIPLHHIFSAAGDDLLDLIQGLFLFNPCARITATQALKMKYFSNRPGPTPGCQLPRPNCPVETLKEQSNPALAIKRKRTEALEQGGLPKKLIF

Mitogen-activated protein kinase kinase kinase 4 (Homo sapiens), sequence (Q9Y6R4 whole entry): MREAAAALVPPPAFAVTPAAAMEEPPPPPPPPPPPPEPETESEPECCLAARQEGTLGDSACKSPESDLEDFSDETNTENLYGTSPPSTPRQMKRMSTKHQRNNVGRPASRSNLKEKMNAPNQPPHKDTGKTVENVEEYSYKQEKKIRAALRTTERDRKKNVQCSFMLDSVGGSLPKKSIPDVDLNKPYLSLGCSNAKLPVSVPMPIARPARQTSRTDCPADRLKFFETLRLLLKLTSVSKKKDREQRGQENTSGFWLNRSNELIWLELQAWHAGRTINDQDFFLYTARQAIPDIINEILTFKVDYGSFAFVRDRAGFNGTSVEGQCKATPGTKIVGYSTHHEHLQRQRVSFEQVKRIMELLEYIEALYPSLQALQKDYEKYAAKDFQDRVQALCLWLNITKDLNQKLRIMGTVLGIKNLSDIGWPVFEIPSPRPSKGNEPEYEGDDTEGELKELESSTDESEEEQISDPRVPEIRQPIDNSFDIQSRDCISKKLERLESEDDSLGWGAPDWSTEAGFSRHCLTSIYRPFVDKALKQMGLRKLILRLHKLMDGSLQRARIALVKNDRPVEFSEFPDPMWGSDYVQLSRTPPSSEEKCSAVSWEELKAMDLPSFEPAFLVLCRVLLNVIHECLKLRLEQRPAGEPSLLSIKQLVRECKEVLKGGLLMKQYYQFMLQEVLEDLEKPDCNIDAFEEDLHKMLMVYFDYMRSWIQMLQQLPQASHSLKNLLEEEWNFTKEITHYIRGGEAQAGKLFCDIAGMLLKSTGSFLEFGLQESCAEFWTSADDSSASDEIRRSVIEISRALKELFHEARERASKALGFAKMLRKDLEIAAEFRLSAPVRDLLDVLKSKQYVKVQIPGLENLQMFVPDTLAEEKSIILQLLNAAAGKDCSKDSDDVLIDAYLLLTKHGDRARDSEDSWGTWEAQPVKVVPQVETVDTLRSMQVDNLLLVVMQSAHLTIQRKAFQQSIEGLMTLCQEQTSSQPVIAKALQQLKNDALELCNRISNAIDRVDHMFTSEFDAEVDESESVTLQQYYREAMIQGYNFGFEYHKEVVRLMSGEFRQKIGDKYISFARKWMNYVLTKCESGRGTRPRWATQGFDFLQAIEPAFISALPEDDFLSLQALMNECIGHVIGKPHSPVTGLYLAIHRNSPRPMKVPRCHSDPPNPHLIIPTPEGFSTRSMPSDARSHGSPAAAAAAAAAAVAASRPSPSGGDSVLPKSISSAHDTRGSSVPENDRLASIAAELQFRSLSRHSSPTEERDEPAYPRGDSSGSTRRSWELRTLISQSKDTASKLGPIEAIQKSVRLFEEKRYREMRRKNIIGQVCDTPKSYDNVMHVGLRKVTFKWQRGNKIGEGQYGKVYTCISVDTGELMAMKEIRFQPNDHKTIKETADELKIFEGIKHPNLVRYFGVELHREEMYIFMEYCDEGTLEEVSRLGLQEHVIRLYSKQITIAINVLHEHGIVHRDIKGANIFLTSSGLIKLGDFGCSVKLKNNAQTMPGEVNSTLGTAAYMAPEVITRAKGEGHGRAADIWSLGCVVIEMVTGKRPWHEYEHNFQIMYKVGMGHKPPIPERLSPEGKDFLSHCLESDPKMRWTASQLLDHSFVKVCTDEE

CCc1ccccc1C(=O)Nc1n[nH]c2c(C)c(F)c(C3C(C#N)=C(C)N(C)C(C)=C3C#N)cc12 [BAY-3827]
inactive: residual activity [1] 72% | residual activity [2] 75% | residual activity [3] 100% | residual activity [4] 71% | residual activity [5] 100% | residual activity [6] 55% | inhibition [7] 19.9% | residual activity [8] 87% | residual activity [9] 99% | residual activity [10] 62% | residual activity [11] 100% | residual activity [12] 98% | residual activity [13] 88% | residual activity [14] 100% | residual activity [15] 63% | residual activity [16] 82% | residual activity [17] 90%

CC1=C(C#N)C(c2ccc3c(c2)c(NC(=O)c2ccccc2C)nn3C)C(C#N)=C(C)N1 [BAY-974]
inactive: residual activity [1] 84% | residual activity [2] 100% | residual activity [3] 73% | residual activity [4] 88% | residual activity [5] 72% | residual activity [6] 100% | inhibition [7] 0.04% | residual activity [8] 72% | residual activity [9] 91% | residual activity [10] 52% | residual activity [11] 64% | residual activity [12] 100% | residual activity [13] 96% | residual activity [14] 80% | residual activity [15] 98% | residual activity [16] 98% | residual activity [17] 58%
